Source: the CheMixHub ionic liquid set

Assay: xn = mol fraction of the nth substance listed

C=C[n+]1ccn(CCCC)c1.N[C@@H](Cc1c[nH]cn1)C(=O)[O-] + O
101.3 kPa
Conditions	electrical conductivity [S/m]	viscosity [mPa·s]
303.15 K, x1 = 0.3	3.56	8.1
303.15 K, x1 = 0.9	0.59	1179
323.15 K, x1 = 1	0.21	1418
333.15 K, x1 = 0.3	–	4.19
343.15 K, x1 = 0.7	–	29.04
353.15 K, x1 = 0.5	–	12.68

CC(=O)[O-].CCCC[n+]1ccn(C)c1 + O
Conditions	viscosity [mPa·s]
293.15 K, 100 kPa, x2 = 0.1843	559
293.15 K, 100 kPa, x2 = 0.3889	298
293.15 K, 100 kPa, x2 = 0.5951	124.3
293.15 K, 100 kPa, x2 = 0.8004	32.1
298.15 K, 100 kPa, x2 = 0	595
298.15 K, 101 kPa, x1 = 0.03479	2.23
298.15 K, 101 kPa, x1 = 0.03897	2.35
298.15 K, 101 kPa, x1 = 0.04311	2.66
303.15 K, 100 kPa, x2 = 0	400
303.15 K, 100 kPa, x2 = 0.1843	262
303.15 K, 100 kPa, x2 = 0.3889	150
303.15 K, 100 kPa, x2 = 0.5951	68.8
303.15 K, 100 kPa, x2 = 0.8004	19.69
303.15 K, 101 kPa, x1 = 0.03479	2.18
303.15 K, 101 kPa, x1 = 0.03897	2.29
303.15 K, 101 kPa, x1 = 0.04311	2.63
308.15 K, 101 kPa, x1 = 0.03479	2.16
308.15 K, 101 kPa, x1 = 0.03897	2.25
308.15 K, 101 kPa, x1 = 0.04311	2.56
313.15 K, 100 kPa, x2 = 0	200
313.15 K, 100 kPa, x2 = 0.0171	138.1
313.15 K, 100 kPa, x2 = 0.1843	138.2
313.15 K, 100 kPa, x2 = 0.3889	85
313.15 K, 100 kPa, x2 = 0.5951	41.9
313.15 K, 100 kPa, x2 = 0.8004	13.12
313.15 K, 101 kPa, x1 = 0.03479	2.13
313.15 K, 101 kPa, x1 = 0.03897	2.22
313.15 K, 101 kPa, x1 = 0.04311	2.49
318.15 K, 101 kPa, x1 = 0.03479	1.74
318.15 K, 101 kPa, x1 = 0.03897	2.11
318.15 K, 101 kPa, x1 = 0.04311	2.29
323.15 K, 100 kPa, x2 = 0	111.7
323.15 K, 100 kPa, x2 = 0.1843	79.7
323.15 K, 100 kPa, x2 = 0.3889	51.8
323.15 K, 100 kPa, x2 = 0.5951	26.97
323.15 K, 100 kPa, x2 = 0.8004	9.09
323.15 K, 101 kPa, x1 = 0.03479	1.58
323.15 K, 101 kPa, x1 = 0.03897	2.07
323.15 K, 101 kPa, x1 = 0.04311	2.26
328.15 K, 101 kPa, x1 = 0.03479	1.51
328.15 K, 101 kPa, x1 = 0.03897	1.91
328.15 K, 101 kPa, x1 = 0.04311	2.02
333.15 K, 100 kPa, x2 = 0	67.3
333.15 K, 100 kPa, x2 = 0.01197	48.8
333.15 K, 100 kPa, x2 = 0.1843	48.6
333.15 K, 100 kPa, x2 = 0.3889	33.6
333.15 K, 100 kPa, x2 = 0.5951	18.26
333.15 K, 101 kPa, x1 = 0.03479	1.24
333.15 K, 101 kPa, x1 = 0.03897	1.86
333.15 K, 101 kPa, x1 = 0.04311	1.97
343.15 K, 100 kPa, x2 = 0	41.6
343.15 K, 100 kPa, x2 = 0.1843	32.4
343.15 K, 100 kPa, x2 = 0.3889	23.31
343.15 K, 100 kPa, x2 = 0.5951	13
353.15 K, 100 kPa, x2 = 0	27.86
353.15 K, 100 kPa, x2 = 0.1843	22.25
353.15 K, 100 kPa, x2 = 0.3889	16.58
353.15 K, 100 kPa, x2 = 0.5951	9.64
363.15 K, 100 kPa, x2 = 0	19.87
363.15 K, 100 kPa, x2 = 0.1843	15.93
363.15 K, 100 kPa, x2 = 0.5951	7.37
373.15 K, 100 kPa, x2 = 0	14.82
373.15 K, 100 kPa, x2 = 0.1843	11.94

CC(=O)[O-].C[NH+](C)C + O
298.15 K, 101 kPa
Conditions	viscosity [mPa·s]
x1 = 0.5942	2.59
x1 = 0.8068	2.64
x1 = 0.8639	2.66

CC(O)C(=O)[O-].CN(C)CCOCC[NH+](C)C + O
Conditions	viscosity [mPa·s]
298.15 K, 100 kPa, x1 = 0.06665	2.86

CCCCCCCCCCCC[N+](C)(C)CC.[Br-] + O
viscosity [mPa·s], 101 kPa
Conditions	x1 = 3.604e-05	x1 = 9.009e-05	x1 = 0.0001441	x1 = 0.0001802	x1 = 0.0002702	x1 = 0.0003603	x1 = 0.0004503	x1 = 0.0005403
298.15 K	0.895	0.903	0.913	0.916	0.929	0.938	0.947	0.956
303.15 K	0.796	0.807	0.816	0.822	0.831	0.839	0.847	0.854
308.15 K	0.714	0.726	0.735	0.74	0.75	0.758	0.765	0.773
313.15 K	0.647	0.658	0.666	0.673	0.682	0.688	0.693	0.699
318.15 K	0.587	0.595	0.605	0.61	0.619	0.623	0.628	0.632

CCCC[N+]1(C)CCCC1.N#C[N-]C#N + O
100 kPa
Conditions	viscosity [mPa·s]
298.15 K, x2 = 0.8348	8
318.15 K, x2 = 0.5802	9
323.15 K, x2 = 0.6452	7
333.15 K, x2 = 0.5238	7
338.15 K, x2 = 0.371	7.8
338.15 K, x2 = 0.3756	7.8

CCCC[n+]1cccc(C)c1.F[B-](F)(F)F + O
298.15 K, 101 kPa
Conditions	electrical conductivity [S/m]
x1 = 0.0002144	0.107
x1 = 0.0004179	0.2
x1 = 0.0004845	0.232
x1 = 0.0007527	0.331
x1 = 0.001001	0.448
x1 = 0.001159	0.5
x1 = 0.00129	0.549
x1 = 0.001546	0.642
x1 = 0.001714	0.709
x1 = 0.001876	0.763
x1 = 0.002129	0.837
x1 = 0.002298	0.886
x1 = 0.002565	0.977
x1 = 0.002757	1.03
x1 = 0.002862	1.08
x1 = 0.003167	1.15
x1 = 0.003324	1.2

CCCn1cc[n+](C)c1.O=S(=O)([N-]S(=O)(=O)C(F)(F)F)C(F)(F)F + O
100 kPa, x2 = 0.272
Conditions	viscosity [mPa·s]
308.15 K	18.83
318.15 K	13.95
323.15 K	12.19
343.15 K	7.64
353.15 K	6.25

CC[NH+](C)CC.O=S(=O)([O-])C(F)(F)F + O
101 kPa
Conditions	viscosity [mPa·s]
293.15 K, x2 = 0.759	7.65
313.15 K, x2 = 0.037	25.8
333.15 K, x2 = 0.434	7.33
333.15 K, x2 = 0.759	2.81
333.15 K, x2 = 0.844	1.94
353.15 K, x2 = 0.434	4.89
353.15 K, x2 = 0.759	2.01

CC[NH+](C)CC.O=S(=O)([O-])C(F)(F)F + O + CC[NH+](C)CC.CS(=O)(=O)[O-]
viscosity [mPa·s], 101 kPa
Conditions	x2 = 0.027, x1 = 0.973	x2 = 0.05, x1 = 0.717	x2 = 0.07, x1 = 0.498	x2 = 0.089, x1 = 0.309	x2 = 0.107, x1 = 0.143	x2 = 0.114, x1 = 0.069
293.15 K	53.3	78.1	101.7	116.8	125.2	128.3
313.15 K	25.8	34	40.9	44.4	45.8	46.1
333.15 K	14.6	17.9	20.4	21.4	21.6	21.7
353.15 K	9.18	10.7	11.74	12.07	12.03	12.06
